Data set [1] can be described thus: Membrane-water distribution by HPLC on solid-supported egg lecithin bilayer (column A1). As to conditions: column A1, pH 7.4, 23° C., calculated from retention time via calibration curve; read-out: logDcal-PC, pH 7.4. The class given is physicochemical.
Excerpt: A natural mixture of egg lecithin and 0.03 mole % fluorescence marker 1-hexadecanoyl-2-(1-pyrenedecanoyl)-sn-glycero-3-phosphocholine is suspended in chloroform and the solvent completely removed in vacuo. The lipids are subsequently dispersed in the aqueous buffer (pH 7.4) and small, unilamellar vesicles are produced by ultrasonic treatment. By mixing with spherical, porous silicate structures (silicate gel with 10 μm sphere diameter and 400 nm pore size) at temperatures higher than the Tm of the lipids, the corresponding solid-supported lipid bilayer is obtained by the spontaneous fusion of the vesicles on the silicate surface. […]
For determining the dead time t0 in the selected system, 5 μl of a 5 mM potassium iodide solution is injected into buffer A. In the case of the HPLC column A1 in reproducible manner a t0 of 0.64 min is measured and for column A2 t0=0.58 min. […]
The quantities of compound to be injected are determined on the one hand by its adsorption tendency on the stationary phase and on the other by the detectability of the compound. As a rule most reference compounds can be detected using spectroscopic methods (here UV/V is spectroscopy at 210 nm). The measured retention times tR are directly correlated with the octanol/water partition coefficient using a prior art equation system. […]
In the present example logD cal-PC, pH 7.4 is determined.
A short description of data set [2]: Partition coefficient between solid-supported membrane C (DEPC) and aqueous compartment, UV/Vis at 304 nm. The class given is physicochemical. Conditions: pH 7.4, tetracaine 25 μm, buffer A. An excerpt: The process for determining lipid binding constants with the aid of solid, biocompatible surfaces can also be used for pharmaceuticals. […] For an analyzing the partition coefficient of this pharmaceutical between the lipid and water phases, as described in example 1, porous silicate structures are coated with a charge-neutral membrane of 99.97 mole % zwitterionic lecithin 1,2-dielaidoyl-sn-3-glycero-3-phosphocholine (DEPC) and 0.03 mole % fluorescence marker 1-hexadecanoyl-2-(-pyrenedecanoyl)-sn-glycero-3-phosphocholine (hereinafter called membrane C).
The active agent tetracaine to be analyzed is placed in double sample form in aqueous solution (buffer A) in a constant concentration of 25 μm and mixed with different quantities of membrane C (concentration range of the lipid 5*10^−5−2*10^−3 mole/l). […] The free active agent concentration in the supernatant material can be rapidly determined in the case of the UV-active compound tetracaine with the aid of UV/Vis spectroscopy (detection at 304 nm). Alternatively the remaining lipid-free supernatant materials can be analyzed using chromatographic methods (HPLC, gas chromatography, etc.). […]
The partition coefficient found for tetracaine between the solid-supported membrane C and the aqueous compartment at the physiologically relevant pH-value 7.4 is 1.4. The binding constants are calculated according to standard procedures.

Take `CC(=O)CC(c1ccccc1)c1c(O)c2ccccc2oc1=O` (centres unmarked) [Warfarin, 3-(-acetonylbenzyl)-4-hydroxycoumarin]: the chromatographic logD in data set [1] was 1.1.

As for `CCCCNc1ccc(C(=O)OCCN(C)C)cc1` [tetracaine], the “partition coefficient between solid-supported membrane C and aqueous compartment” value in data set [2] was determined as 1.4.

(Values after patent US6868343B1, “Interactions between substances and surfaces that are made up of amphiphilic molecules” (NIMBUS Biotechnologie GmbH, priority 1998, dated 2005).)
